Experimental data: PubChem BioAssay (NCI)
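Briefly, cells in 96-well plates were exposed to five compound concentrations for 48 h, and endpoints were estimated by linear interpolation. GI50 is the concentration that inhibits growth by half. TGI denotes the concentration required for complete inhibition of growth.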

How the values were obtained:
Test in all cases: NCI-60 cell line screen, 48 h
NCI-H226 lung = tested on: NCI-H226 lung
A498 renal = tested on: A498 renal
DU-145 prostate = tested on: DU-145 prostate
HCT-15 colon = tested on: HCT-15 colon
OVCAR-3 ovarian = tested on: OVCAR-3 ovarian
SK-MEL-5 melanoma = tested on: SK-MEL-5 melanoma
PC-3 prostate = tested on: PC-3 prostate
HS 578T breast = tested on: HS 578T breast
OVCAR-5 ovarian = tested on: OVCAR-5 ovarian
NCI-H23 lung = tested on: NCI-H23 lung
TK-10 renal = tested on: TK-10 renal
NCI-H460 lung = tested on: NCI-H460 lung
SN12C renal = tested on: SN12C renal
UACC-62 melanoma = tested on: UACC-62 melanoma
NCI/ADR-RES ovarian = tested on: NCI/ADR-RES ovarian
BT-549 breast = tested on: BT-549 breast
SF-268 CNS = tested on: SF-268 CNS
HCT-116 colon = tested on: HCT-116 colon
SW-620 colon = tested on: SW-620 colon
HOP-62 NSCLC = tested on: HOP-62 NSCLC
RXF 393 renal = tested on: RXF 393 renal
MCF7 breast = tested on: MCF7 breast
UO-31 renal = tested on: UO-31 renal
COLO 205 colon = tested on: COLO 205 colon
MALME-3M melanoma = tested on: MALME-3M melanoma
M14 melanoma = tested on: M14 melanoma
SK-OV-3 ovarian = tested on: SK-OV-3 ovarian
SK-MEL-2 melanoma = tested on: SK-MEL-2 melanoma
NCI-H522 lung = tested on: NCI-H522 lung
MDA-MB-435 = tested on: MDA-MB-435
786-0 renal = tested on: 786-0 renal
SNB-19 CNS = tested on: SNB-19 CNS
RPMI-8226 leukemia = tested on: RPMI-8226 leukemia
CCRF-CEM leukemia = tested on: CCRF-CEM leukemia
SF-295 CNS = tested on: SF-295 CNS
OVCAR-8 ovarian = tested on: OVCAR-8 ovarian
SF-539 CNS = tested on: SF-539 CNS
ACHN renal = tested on: ACHN renal
UACC-257 melanoma = tested on: UACC-257 melanoma
MDA-MB-231 breast = tested on: MDA-MB-231 breast
MOLT-4 leukemia = tested on: MOLT-4 leukemia
HL-60(TB) leukemia = tested on: HL-60(TB) leukemia
KM12 colon = tested on: KM12 colon
EKVX NSCLC = tested on: EKVX NSCLC
IGROV1 ovarian = tested on: IGROV1 ovarian
U251 CNS = tested on: U251 CNS
A549 NSCLC = tested on: A549 NSCLC
HOP-92 NSCLC = tested on: HOP-92 NSCLC
LOX IMVI melanoma = tested on: LOX IMVI melanoma
T-47D breast = tested on: T-47D breast
CAKI-1 renal = tested on: CAKI-1 renal

For `COc1cc2c(/C=C3/C(=O)Nc4ccccc43)c(Cl)n(Cc3ccccc3)c2cc1C`, the GI50 (NCI-H226 lung) was > 100 µM, the TGI (NCI-H226 lung) was > 100 µM and the GI50 (A498 renal) was > 100 µM. The TGI (A498 renal) was > 100 µM, the GI50 (DU-145 prostate) was > 100 µM and the TGI (DU-145 prostate) was > 100 µM. The GI50 (HCT-15 colon) was > 100 µM, the TGI (HCT-15 colon) was > 100 µM and the GI50 (OVCAR-3 ovarian) was > 100 µM. For the same compound, the TGI (OVCAR-3 ovarian) was > 100 µM, the GI50 (SK-MEL-5 melanoma) was 42.2 µM and the TGI (SK-MEL-5 melanoma) was > 100 µM. The GI50 (PC-3 prostate) was 87.9 µM, the TGI (PC-3 prostate) was > 100 µM and the GI50 (HS 578T breast) was > 100 µM. For the same compound, the TGI (HS 578T breast) was > 100 µM, the GI50 (OVCAR-5 ovarian) was > 100 µM and the TGI (OVCAR-5 ovarian) was > 100 µM. The GI50 (NCI-H23 lung) was > 100 µM, the TGI (NCI-H23 lung) was > 100 µM and the GI50 (TK-10 renal) was > 100 µM. For the same compound, the TGI (TK-10 renal) was > 100 µM, the GI50 (NCI-H460 lung) was > 100 µM and the TGI (NCI-H460 lung) was > 100 µM. The GI50 (SN12C renal) was > 100 µM, the TGI (SN12C renal) was > 100 µM and the GI50 (UACC-62 melanoma) was > 100 µM. The TGI (UACC-62 melanoma) was > 100 µM, the GI50 (NCI/ADR-RES ovarian) was > 100 µM and the TGI (NCI/ADR-RES ovarian) was > 100 µM. For the same compound, the GI50 (BT-549 breast) was > 100 µM, the TGI (BT-549 breast) was > 100 µM and the GI50 (SF-268 CNS) was > 100 µM. The TGI (SF-268 CNS) was > 100 µM, the GI50 (HCT-116 colon) was > 100 µM and the TGI (HCT-116 colon) was > 100 µM. For the same compound, the GI50 (SW-620 colon) was > 100 µM, the TGI (SW-620 colon) was > 100 µM and the GI50 (HOP-62 NSCLC) was > 100 µM. For the same compound, the TGI (HOP-62 NSCLC) was > 100 µM, the GI50 (RXF 393 renal) was > 100 µM and the TGI (RXF 393 renal) was > 100 µM. The GI50 (MCF7 breast) was > 100 µM, the TGI (MCF7 breast) was > 100 µM and the GI50 (UO-31 renal) was 83.4 µM. For the same compound, the TGI (UO-31 renal) was > 100 µM, the GI50 (COLO 205 colon) was 31.8 µM and the TGI (COLO 205 colon) was > 100 µM. For the same compound, the GI50 (MALME-3M melanoma) was > 100 µM, the TGI (MALME-3M melanoma) was > 100 µM and the GI50 (M14 melanoma) was > 100 µM. For the same compound, the TGI (M14 melanoma) was > 100 µM, the GI50 (SK-OV-3 ovarian) was > 100 µM and the TGI (SK-OV-3 ovarian) was > 100 µM. For the same compound, the GI50 (SK-MEL-2 melanoma) was > 100 µM, the TGI (SK-MEL-2 melanoma) was > 100 µM and the GI50 (NCI-H522 lung) was > 100 µM. For the same compound, the TGI (NCI-H522 lung) was > 100 µM, the GI50 (MDA-MB-435) was 64.4 µM and the TGI (MDA-MB-435) was > 100 µM. For the same compound, the GI50 (786-0 renal) was > 100 µM, the TGI (786-0 renal) was > 100 µM and the GI50 (SNB-19 CNS) was > 100 µM. For the same compound, the TGI (SNB-19 CNS) was > 100 µM, the GI50 (RPMI-8226 leukemia) was 21.1 µM and the TGI (RPMI-8226 leukemia) was > 100 µM. The GI50 (CCRF-CEM leukemia) was 29.1 µM, the TGI (CCRF-CEM leukemia) was > 100 µM and the GI50 (SF-295 CNS) was > 100 µM. The TGI (SF-295 CNS) was > 100 µM, the GI50 (OVCAR-8 ovarian) was > 100 µM and the TGI (OVCAR-8 ovarian) was > 100 µM. The GI50 (SF-539 CNS) was > 100 µM, the TGI (SF-539 CNS) was > 100 µM and the GI50 (ACHN renal) was > 100 µM. For the same compound, the TGI (ACHN renal) was > 100 µM, the GI50 (UACC-257 melanoma) was > 100 µM and the TGI (UACC-257 melanoma) was > 100 µM. For the same compound, the GI50 (MDA-MB-231 breast) was > 100 µM, the TGI (MDA-MB-231 breast) was > 100 µM and the GI50 (MOLT-4 leukemia) was 6.05 µM. For the same compound, the TGI (MOLT-4 leukemia) was > 100 µM, the GI50 (HL-60(TB) leukemia) was 6.61 µM and the TGI (HL-60(TB) leukemia) was > 100 µM. The GI50 (KM12 colon) was > 100 µM, the TGI (KM12 colon) was > 100 µM and the GI50 (EKVX NSCLC) was > 100 µM. For the same compound, the TGI (EKVX NSCLC) was > 100 µM, the GI50 (IGROV1 ovarian) was > 100 µM and the TGI (IGROV1 ovarian) was > 100 µM. For the same compound, the GI50 (U251 CNS) was > 100 µM, the TGI (U251 CNS) was > 100 µM and the GI50 (A549 NSCLC) was > 100 µM. For the same compound, the TGI (A549 NSCLC) was > 100 µM, the GI50 (HOP-92 NSCLC) was > 100 µM and the TGI (HOP-92 NSCLC) was > 100 µM. The GI50 (LOX IMVI melanoma) was > 100 µM, the TGI (LOX IMVI melanoma) was > 100 µM and the GI50 (T-47D breast) was 41.9 µM. For the same compound, the TGI (T-47D breast) was > 100 µM, the GI50 (CAKI-1 renal) was > 100 µM and the TGI (CAKI-1 renal) was > 100 µM.
